The results in this text go back to US10618903B2, “Heteroaryl substituted aminopyridine compounds” (BRISTOL-MYERS SQUIBB COMPANY, priority 2015, dated 2020).

One test has as its target IRAK4 (Homo sapiens (Human), UniProt Q9NWZ3). Briefly: IRAK4 Inhibition Assay. The test is classed as biochemical. The settings on record: ATP 500 μM; IRAK4 0.6 nM. In short, it runs like this: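 Readout: electrophoretic (LabChip) separation of fluorescent peptide substrate from phosphorylated product after EDTA quench. Reactions ran 60 min at room temperature with 0.6 nM IRAK4, 1.5 μM peptide and 500 μM ATP; inhibition referenced to no-enzyme (100%) and vehicle (0%) controls.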

Test [1] relates to IL-6 levels in human whole blood stimulated with a TLR2 agonist. Briefly: IRAK4 Whole Blood Assay (lipoteichoic acid/TLR2-stimulated IL-6). The test is classed as cell-based. The conditions noted are these: lipoteichoic acid 10 μg/mL, IL-6 readout. The method, then: Human whole blood containing the anti-coagulant ACD-A was plated in 384-well plate (25 μL/well) and incubated with compounds for 60 minutes at 37° C. in a 5% CO2 incubator. The blood was stimulated with a TLR2 agonist, 10 μg/mL final concentration of lipoteichoic acid (Invivogen, San Diego, Calif.) in 25 μL RPMI (Gibco) for 5 hours in a 5% CO2 incubator. At the end of the incubation, plates were centrifuged at 2300 rpm for 5 minutes. Supernatants were harvested and analyzed for IL-6 levels by Flow Cytometry beads assay (BD Biosciences, San Jose, Calif.).

Sequence of IRAK4 (Q9NWZ3 whole entry): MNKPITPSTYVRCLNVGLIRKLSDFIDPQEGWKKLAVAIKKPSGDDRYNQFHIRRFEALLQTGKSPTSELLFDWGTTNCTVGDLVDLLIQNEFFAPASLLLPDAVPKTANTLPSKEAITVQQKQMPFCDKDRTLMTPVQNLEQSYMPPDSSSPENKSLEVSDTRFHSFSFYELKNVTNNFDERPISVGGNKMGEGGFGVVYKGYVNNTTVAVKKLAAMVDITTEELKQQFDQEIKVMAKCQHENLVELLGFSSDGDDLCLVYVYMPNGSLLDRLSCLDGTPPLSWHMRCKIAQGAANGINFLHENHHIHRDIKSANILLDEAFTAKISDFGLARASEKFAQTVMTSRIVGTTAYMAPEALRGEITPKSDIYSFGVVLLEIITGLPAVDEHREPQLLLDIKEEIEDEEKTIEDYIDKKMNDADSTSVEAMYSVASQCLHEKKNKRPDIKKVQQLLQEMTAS

On to `CC(C)(O)[C@H]1CC[C@H](NC(=O)c2cnc(-c3cnn4cc(C#N)cnc34)cc2NC2COC2)CC1` [Example 120, 6-(6-cyanopyrazolo[1,5-a]pyrimidin-3-yl)-N-((1r,4r)-4-(2-hydroxypropan-2-yl)cyclohexyl)-4-(oxetan-3-ylamino)nicotinamide], for which, on IRAK4, the IC50 was 9 nM. The same compound registered a 50% effective concentration (EC50) in test [1] (Homo sapiens) of 800 nM.

In the case of `CC(C)(O)[C@H](F)CNC(=O)c1cnc(-c2cnn3cc(C#N)cnc23)cc1N[C@@H]1CCN(c2ncccn2)C1` [Example 118, 6-(6-cyanopyrazolo[1,5-a]pyrimidin-3-yl)-N—((R)-2-fluoro-3-hydroxy-3-methylbutyl)-4-(((R)-1-(pyrimidin-2-yl)pyrrolidin-3-yl)amino)nicotinamide], the IC50 at IRAK4 is 9 nM. This compound came in with a concentration giving a half-maximal response (EC50) in test [1] (Homo sapiens) of 710 nM.

As for `CC(C)(O)[C@H](F)CNC(=O)c1cnc(-c2cnc3cc(C(F)F)cnn23)cc1NC1COC1` [Example 222, (R)-6-(7-(difluoromethyl)imidazo[1,2-b]pyridazin-3-yl)-N-(2-fluoro-3-hydroxy-3-methylbutyl)-4-(oxetan-3-ylamino)nicotinamide], the IC50 on IRAK4 was determined as 7 nM. In test [1] (Homo sapiens), the 50% effective concentration (EC50) was 630 nM.

As to `CC(C)(O)[C@H](F)CNC(=O)c1cnc(-c2cnc3cc(Cl)cnn23)cc1NCCC(F)F` [Example 210, (R)-6-(7-chloroimidazo[1,2-b]pyridazin-3-yl)-4-((3,3-difluoropropyl)amino)-N-(2-fluoro-3-hydroxy-3-methylbutyl)nicotinamide], the IC50 at IRAK4 was 3 nM. It took 980 nM to reach a half-maximal effect in test [1] (Homo sapiens) (EC50).

Turning to `CC(C)Nc1cc(-c2ccc3cc(C#N)cnn23)ncc1C(=O)NC[C@@H](F)C(C)(C)O` [Example 193, (R)-6-(3-cyanopyrrolo[1,2-b]pyridazin-7-yl)-N-(2-fluoro-3-hydroxy-3-methylbutyl)-4-(isopropylamino)nicotinamide], the half-maximal inhibitory concentration (IC50) on IRAK4 came to 4 nM. Also, the EC50 in test [1] (Homo sapiens) was found to be 260 nM.

Turning to `CC(C)(O)[C@H](F)CNC(=O)c1cnc(-c2cnn3cc(C#N)cnc23)cc1NC1CCCOC1` (single isomer, unassigned) [Example 95], at IRAK4, the IC50 came out at 6 nM. For the same compound, it took 1160 nM to reach a half-maximal effect in test [1] (EC50).

For the compound `CC(C)(O)[C@H](F)CNC(=O)c1cnc(-c2cnn3cc(Cl)cnc23)cc1NC1CCCOC1` (single isomer, unassigned) [Example 3], the half-maximal inhibitory concentration (IC50) on IRAK4 is 6 nM. The concentration giving a half-maximal response (EC50) in test [1] (Homo sapiens) was determined as 380 nM.

Turning to `CC(C)(O)[C@H](F)CNC(=O)c1cnc(-c2cnc3cc(C#N)cnn23)cc1Nc1cnn(C(F)F)c1` [Example 273, (R)-6-(7-cyanoimidazo[1,2-b]pyridazin-3-yl)-4-((1-(difluoromethyl)-1H-pyrazol-4-yl)amino)-N-(2-fluoro-3-hydroxy-3-methylbutyl)nicotinamide], on IRAK4, the IC50 was 7 nM. Also, the EC50 in test [1] (Homo sapiens) worked out at 380 nM.

Turning to `CC(C)Nc1cc(-c2cnn3cc(C#N)cnc23)ncc1C(=O)NC[C@@H](F)C(C)(C)OC(F)F` [Example 170, (R)-6-(6-cyanopyrazolo[1,5-a]pyrimidin-3-yl)-N-(3-(difluoromethoxy)-2-fluoro-3-methylbutyl)-4-(isopropylamino)nicotinamide], the concentration for half-maximal inhibition (IC50) on IRAK4 is 5 nM. Also, the EC50 in test [1] (Homo sapiens) came out at 820 nM.

Take `C[C@H](CO)Nc1cc(-c2cnn3cc(C#N)cnc23)ncc1C(=O)NC[C@@H](F)C(C)(C)O` [Example 98, 6-(6-cyanopyrazolo[1,5-a]pyrimidin-3-yl)-N—((R)-2-fluoro-3-hydroxy-3-methylbutyl)-4-(((R)-1-hydroxypropan-2-yl)amino)nicotinamide]: the half-maximal inhibitory concentration (IC50) on IRAK4 was 6 nM. The compound also showed a concentration giving a half-maximal response (EC50) in test [1] (Homo sapiens) of 860 nM.

Consider `CC(C)Nc1cc(-c2cnc3cc(F)cnn23)ncc1C(=O)NC[C@H](F)C(C)(C)O` [Example 212, (S)—N-(2-fluoro-3-hydroxy-3-methylbutyl)-6-(7-fluoroimidazo[1,2-b]pyridazin-3-yl)-4-(isopropylamino)nicotinamide], for which the IC50 on IRAK4 was determined as 3 nM. In test [1] (Homo sapiens), this compound returned an EC50 of 980 nM.

In the case of `CC(C)(O)[C@H]1CC[C@H](NC(=O)c2cnc(-c3cnc4cc(Cl)cnn34)cc2Nc2cnn(CC(F)F)c2)CC1` [Example 264, 6-(7-chloroimidazo[1,2-b]pyridazin-3-yl)-4-((1-(2,2-difluoroethyl)-1H-pyrazol-4-yl)amino)-N-((1r,4r)-4-(2-hydroxypropan-2-yl)cyclohexyl)nicotinamide], at IRAK4, the IC50 was 2 nM. This compound also registered a concentration giving a half-maximal response (EC50) in test [1] (Homo sapiens) of 910 nM.

For `CCO[C@H]1CC[C@H](NC(=O)c2cnc(-c3cnn4cc(Cl)cnc34)cc2NC(C)C)CC1` [Example 166, 6-(6-chloropyrazolo[1,5-a]pyrimidin-3-yl)-N-((1r,4r)-4-ethoxycyclohexyl)-4-(isopropylamino)nicotinamide], the 50% inhibitory concentration (IC50) at IRAK4 came to 5 nM. For the same compound, the concentration giving a half-maximal response (EC50) in test [1] (Homo sapiens) amounted to 660 nM.

Turning to `CC(=O)N[C@H](C)CCNC(=O)c1cnc(-c2cnn3cc(Cl)cnc23)cc1NC(C)C` [Example 167, (R)—N-(3-acetamidobutyl)-6-(6-chloropyrazolo[1,5-a]pyrimidin-3-yl)-4-(isopropylamino) nicotinamide], the IC50 at IRAK4 was 5 nM. In test [1] (Homo sapiens), this compound had a concentration giving a half-maximal response (EC50) of 550 nM.

As for `CC(C)(O)[C@H](F)CNC(=O)c1cnc(-c2cnc3cc(Cl)cnn23)cc1Nc1cnn(C2CCC2)c1` [Example 285, (R)-6-(7-chloroimidazo[1,2-b]pyridazin-3-yl)-4-((1-cyclobutyl-1H-pyrazol-4-yl)amino)-N-(2-fluoro-3-hydroxy-3-methylbutyl)nicotinamide], at IRAK4, the half-maximal inhibitory concentration (IC50) was 3 nM. Moreover, the EC50 in test [1] (Homo sapiens) is 370 nM.

As to `CC(C)(O)[C@H](F)CNC(=O)c1cnc(-c2cnn3cc(C#N)cnc23)cc1NC1CCCOC1` (single isomer, unassigned) [Example 94], the IC50 on IRAK4 was determined as 10 nM. The compound also had a 50% effective concentration (EC50) in test [1] of 370 nM.

In the case of `CC(C)Nc1cc(-c2cnc3cc(C#N)cnn23)ncc1C(=O)NCC(F)C1CC(C)OC(C)C1` (centres unmarked) [Example 203, 6-(7-cyanoimidazo[1,2-b]pyridazin-3-yl)-N-(2-(2,6-dimethyltetrahydro-2H-pyran-4-yl)-2-fluoroethyl)-4-(isopropylamino)nicotinamide], the IC50 at IRAK4 was determined as 5 nM. The compound also had a concentration giving a half-maximal response (EC50) in test [1] (Homo sapiens) of 890 nM.

With `CCC(C)Nc1cc(-c2cnn3cc(Cl)cnc23)ncc1C(=O)NC[C@@H](F)C(C)(C)O` (stereo in doubt) [Example 69, 4-(((R)-sec-butyl)amino)-6-(6-chloropyrazolo[1,5-a]pyrimidin-3-yl)-N—((R)-2-fluoro-3-hydroxy-3-methylbutyl)nicotinamide], on IRAK4, the half-maximal inhibitory concentration (IC50) was 2 nM. In test [1] (Homo sapiens), this compound returned a concentration for a half-maximal effect (EC50) of 3170 nM.

Consider `Cn1cc(Nc2cc(-c3cnn4cc(Cl)cnc34)ncc2C(=O)NCCC(C)(C)O)cn1` [Example 255, 6-(6-chloropyrazolo[1,5-a]pyrimidin-3-yl)-N-(3-hydroxy-3-methylbutyl)-4-((1-methyl-1H-pyrazol-4-yl)amino)nicotinamide], for which the IC50 on IRAK4 was determined as 5 nM. The compound also showed a 50% effective concentration (EC50) in test [1] (Homo sapiens) of 720 nM.

As to `CC(C)(O)[C@H](F)CNC(=O)c1cnc(-c2cnn3cc(Cl)cnc23)cc1Nc1cnn(CC(F)(F)F)c1` [Example 237, (R)-6-(6-chloropyrazolo[1,5-a]pyrimidin-3-yl)-N-(2-fluoro-3-hydroxy-3-methylbutyl)-4-((1-(2,2,2-trifluoroethyl)-1H-pyrazol-4-yl)amino)nicotinamide], on IRAK4, the IC50 worked out at 2 nM. In test [1], this compound displayed a half-maximal effective concentration (EC50) of 690 nM.

As to `CC(C)n1cc(Nc2cc(-c3cnn4cc(Cl)cnc34)ncc2C(=O)NC[C@@H](F)C(C)(C)O)cn1` [Example 233, (R)-6-(6-chloropyrazolo[1,5-a]pyrimidin-3-yl)-N-(2-fluoro-3-hydroxy-3-methylbutyl)-4-((1-isopropyl-1H-pyrazol-4-yl)amino)nicotinamide], on IRAK4, the half-inhibitory concentration (IC50) turned out to be 6 nM. The same compound had a half-maximal effective concentration (EC50) in test [1] (Homo sapiens) of 570 nM.

On to `CC(C)(F)Cn1cc(Nc2cc(-c3cnc4cc(C#N)cnn34)ncc2C(=O)NC[C@@H](F)C(C)(C)F)cn1` [Example 282, (R)-6-(7-cyanoimidazo[1,2-b]pyridazin-3-yl)-N-(2,3-difluoro-3-methylbutyl)-4-((1-(2-fluoro-2-methylpropyl)-1H-pyrazol-4-yl)amino)nicotinamide], for which the IC50 at IRAK4 turned out to be 2 nM. In test [1] (Homo sapiens), this compound registered a concentration giving a half-maximal response (EC50) of 710 nM.

As to `COC(=O)N[C@H]1CC[C@H](NC(=O)c2cnc(-c3cnc4cc(C#N)cnn34)cc2NC(C)C)CC1` [Example 223, methyl((1r,4r)-4-(6-(7-cyanoimidazo[1,2-b]pyridazin-3-yl)-4-(isopropylamino)nicotinamido)cyclohexyl)carbamate], the IC50 on IRAK4 worked out at 13 nM. For the same compound, in test [1] (Homo sapiens), the EC50 is 810 nM.

In the case of `CC(=O)N[C@H]1CC[C@H](NC(=O)c2cnc(-c3cnc4cc(Cl)cnn34)cc2NC(C)C)CC1` [Example 219, N-((1r,4r)-4-acetamidocyclohexyl)-6-(7-chloroimidazo[1,2-b]pyridazin-3-yl)-4-(isopropylamino)nicotinamide], the IC50 at IRAK4 worked out at 18 nM. In addition, the EC50 in test [1] (Homo sapiens) is 450 nM.

Consider `CC(C)(O)[C@H](F)CNC(=O)c1cnc(-c2cnc3cc(Cl)cnn23)cc1N[C@H]1CC[C@H](C(C)(C)F)CC1` [Example 175, 6-(7-chloroimidazo[1,2-b]pyridazin-3-yl)-N—((R)-2-fluoro-3-hydroxy-3-methylbutyl)-4-(((1r,4R)-4-(2-fluoropropan-2-yl)cyclohexyl)amino)nicotinamide], for which the IC50 at IRAK4 was 3 nM. Also, the EC50 in test [1] (Homo sapiens) was found to be 480 nM.

The term IC50 denotes the midpoint of a concentration-inhibition curve. For orientation: EC50 means the concentration giving half of the maximal effect. A lower EC50 goes with greater potency.
